The values that follow come from patent US8748461B2, “Metalloenzyme inhibitor compounds” (Viamet Pharmaceuticals, Inc., priority 2011, dated 2014).

Molecules are shown by their SMILES. Values after ≈ are worked out from the molar mass of the structure shown.

One test concerns C. albicans. In words: Minimum Inhibitory Concentration (MIC) (C. albicans), CLSI M27-A2. Type of test: cell-based. The note with it: Candida albicans; about 50% growth reduction; approximately 48 h at 35±1° C. The protocol:
A. Minimum Inhibitory Concentration (MIC) (C. albicans) Compounds of the present disclosure were assessed for their ability to inhibit the growth of common strains of fungus, C. albicans using a standardized procedure (CLSI M27-A2). Stock solutions of the test compounds and standards were prepared in DMSO at 1,600 μg/mL (C. albicans). Eleven, serial, one-half dilutions of compounds were prepared in 96-well plates in RPMI+MOPS. The assay concentration ranges were 8-0.001 μg/mL (C. albicans). Cell suspensions of C. albicans were prepared and added to each well at concentrations of approximately 3.7×10^3 colony-forming-units per milliliter (cfu/mL). All testing was in duplicate. The inoculated plates were incubated for approximately 48 h at 35±1° C. At the completion of incubation the wells of each plate were evaluated visually for the presence of fungal growth. […] For QC purposes C. krusei isolate ATCC 6258 (4.0×10^3 cfu/mL) was included in the VOR assay.

The test system of test [1] is Septoria tritici (ATCC 26517). In words: Minimum Inhibitory Concentration (MIC) vs. Septoria tritici. Type of test: cell-based. The note with it: Zymoseptoria tritici, ATCC26517, 168 h; 50% reduction in growth of S. tritici; 22° C., seven days; read-out: Septoria Rating (MIC). In outline: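 Growth inhibition of S. tritici by CLSI-based filamentous-fungus microdilution, 2-fold series 16 to 0.016 μg/mL in RPMI-1640/MOPS with 2% DMSO. Inoculum approximately 5×10^4 cfu/mL; plates incubated 22° C, seven days, dark, unshaken.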

The subject of test [2] is Puccinia recondita tritici = Puccinia triticina. In words: Fungicidal activity vs. leaf rust on wheat plants. Format: in vivo. The note with it: 50 ppm spray on wheat (Yuma), inoculated the following day, evaluated 7-9 days later; read-out: Puccinia Rating (% Disease Control @ 50 ppm). In outline: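 Wheat seedlings were sprayed to wetness with compound at 50 ppm in 10% acetone/Triton X100 water, at about 1500 L/ha. They were inoculated with P. recondita tritici spores the following day and held overnight at high humidity before greenhouse growth. Disease severity was rated 7-9 days later on a rating scale.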

The target in a further test is T1, CYP2C9 (Homo sapiens, UniProt P11712).
T1 construct: from tissue; host or cells: pooled human liver microsomes
T1 sequence (P11712 whole entry): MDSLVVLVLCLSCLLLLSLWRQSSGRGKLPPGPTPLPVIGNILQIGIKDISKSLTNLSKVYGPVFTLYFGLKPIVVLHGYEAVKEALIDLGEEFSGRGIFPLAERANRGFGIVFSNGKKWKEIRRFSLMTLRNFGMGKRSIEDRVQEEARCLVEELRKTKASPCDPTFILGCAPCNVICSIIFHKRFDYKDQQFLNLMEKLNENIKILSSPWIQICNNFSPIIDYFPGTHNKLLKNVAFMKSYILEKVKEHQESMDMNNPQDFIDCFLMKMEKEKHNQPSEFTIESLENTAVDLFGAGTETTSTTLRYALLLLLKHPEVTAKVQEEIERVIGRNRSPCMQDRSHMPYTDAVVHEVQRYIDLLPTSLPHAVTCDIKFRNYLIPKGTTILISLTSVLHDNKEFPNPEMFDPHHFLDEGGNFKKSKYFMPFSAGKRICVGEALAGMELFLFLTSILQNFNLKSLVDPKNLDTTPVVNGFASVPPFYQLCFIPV
In words: Inhibition of liver cytochrome P450 enzymes, isozyme 2C9. Format: in vitro ADME. The note with it: pooled human liver microsomes. The protocol: (§1) B. […] Solutions of each test compound were separately prepared at concentrations of 20000, 6000, 2000, 600, 200, and 60 μM by serial dilution with DMSO:acetonitrile (MeCN) (50:50 v/v). The individual test compound solutions were then diluted 20-fold with DMSO:MeCN:deionized water (5:5:180 v/v/v) to concentrations of 1000, 300, 100, 30, 10, and 3 μM. […] The mixed inhibitor solutions were then diluted 20-fold with DMSO:MeCN:deionized water (5:5:180 v/v/v) to concentrations of 300, 100, 30, 10, 3, 1, 0.3, and 0.1 μM. The percent of organic solvent attributable to the test compound or inhibitor mixture in the final reaction mixture was 2% v/v. Pooled human liver microsome suspension (20 mg/mL) was diluted with phosphate buffer to obtain a 5 mg/mL suspension. A solution of NADPH was prepared in phosphate buffer at a concentration of 5 mM. Separate stock solutions of each substrate were prepared in DMSO:MeCN (50:50 v/v), mixed, and diluted in phosphate buffer to obtain a single solution containing each substrate at five times its experimentally determined Km concentration. […] A portion of the supernatant was analyzed by gradient reverse-phase HPLC with detection by electrospray ionization triple quadrupole mass spectrometry in the positive ion mode. Data was fitted to sigmoid dose-response curves and the inhibitory potency of each test compound was determined as its IC50 value.
(In general: Liver microsomes are a subcellular fraction often used to study metabolism.)

In the next test the target is T2, CYP3A4 (Homo sapiens, UniProt P08684).
T2 construct: from tissue; host or cells: pooled human liver microsomes
T2 sequence (P08684 whole entry): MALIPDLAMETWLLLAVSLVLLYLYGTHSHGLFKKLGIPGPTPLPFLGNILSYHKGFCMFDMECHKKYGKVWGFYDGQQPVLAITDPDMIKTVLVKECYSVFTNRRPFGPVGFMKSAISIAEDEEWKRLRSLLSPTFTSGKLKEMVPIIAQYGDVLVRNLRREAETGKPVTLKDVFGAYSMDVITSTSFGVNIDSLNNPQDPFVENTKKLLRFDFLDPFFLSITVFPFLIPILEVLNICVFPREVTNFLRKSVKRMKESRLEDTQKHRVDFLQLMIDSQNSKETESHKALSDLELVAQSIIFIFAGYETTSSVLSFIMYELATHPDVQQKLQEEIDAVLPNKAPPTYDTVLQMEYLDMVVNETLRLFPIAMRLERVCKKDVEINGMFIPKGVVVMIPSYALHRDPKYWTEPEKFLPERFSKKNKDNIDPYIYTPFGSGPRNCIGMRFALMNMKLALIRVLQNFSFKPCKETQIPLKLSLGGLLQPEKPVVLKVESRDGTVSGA
The test is described as follows: Inhibition of liver cytochrome P450 enzymes, isozyme 3A4. Type of test: in vitro ADME. The note with it: pooled human liver microsomes. The protocol:
as §1

For the next test, the target named is T3, CYP2C19 (Homo sapiens, UniProt P33261).
T3 construct: from tissue; host or cells: pooled human liver microsomes
T3 sequence (P33261 whole entry): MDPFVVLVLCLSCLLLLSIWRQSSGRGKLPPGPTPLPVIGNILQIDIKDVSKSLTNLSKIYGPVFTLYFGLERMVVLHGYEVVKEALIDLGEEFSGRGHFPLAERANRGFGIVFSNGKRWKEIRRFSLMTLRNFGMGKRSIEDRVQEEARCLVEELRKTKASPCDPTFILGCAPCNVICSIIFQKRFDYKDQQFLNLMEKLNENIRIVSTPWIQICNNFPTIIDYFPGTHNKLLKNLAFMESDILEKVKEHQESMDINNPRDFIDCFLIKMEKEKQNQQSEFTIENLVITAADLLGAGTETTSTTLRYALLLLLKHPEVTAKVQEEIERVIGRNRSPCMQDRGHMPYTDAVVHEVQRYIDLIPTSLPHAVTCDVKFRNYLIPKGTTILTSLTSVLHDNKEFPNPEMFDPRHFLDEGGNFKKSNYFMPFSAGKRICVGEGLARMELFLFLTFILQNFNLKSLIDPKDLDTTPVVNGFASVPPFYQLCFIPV
In words: Inhibition of liver cytochrome P450 enzymes, isozyme 2C19. Type of test: in vitro ADME. The note with it: pooled human liver microsomes. The protocol: as §1

Broadly, the MIC is the smallest concentration in the dilution series that meets the test's criterion for growth inhibition. For the compound `C[C@@H](c1ncncc1F)[C@](O)(Cn1cncn1)c1ccc(F)cc1F` [Voriconazole, reference compound], in the test on C. albicans, the minimal inhibitory concentration (MIC) was 0.016 µg/mL (≈ 0.0458 µM).
The compound `OC(Cn1cncn1)(Cn1cncn1)c1ccc(F)cc1F` [Fluconazole, reference compound] yielded an MIC with C. albicans of 0.5 µg/mL (≈ 1.63 µM).
In general, IC50 refers to the concentration needed to halve the response being measured. A lower IC50 goes with greater potency. Regarding `N#Cc1ccc(Oc2ccc(C(F)(F)C(O)(Cn3cnnn3)c3ccc(F)cc3F)nc2)cc1` (centres unmarked) [Compound 5, 4-(6-(2-(2,4-Difluorophenyl)-1,1-difluoro-2-hydroxy-3-(1H-tetrazol-1-yl)propyl)pyridin-3-yloxy)benzonitrile], the minimal inhibitory concentration (MIC) in test [1] was at most 0.5 µg/mL; against C. albicans, 0.031 µg/mL (≈ 0.0659 µM). For the same compound, the pest or weed control at 50 ppm in test [2] was 80 to 100%. The IC50 worked out at 31 µM against CYP2C9, 16 µM against CYP3A4 and 16 µM on CYP2C19.
Take `OC(Cn1cnnn1)(c1ccc(F)cc1F)C(F)(F)c1ccc(OCc2cccc(F)c2)cn1` (centres unmarked) [Compound 3, 2-(2,4-Difluorophenyl)-1,1-difluoro-1-(5-(3-fluorobenzyloxy)pyridin-2-yl)-3-(1H-tetrazol-1-yl)propan-2-ol]: the results for the MIC (in test [1]; in the test with C. albicans) were at most 0.5 µg/mL and 0.002 µg/mL (≈ 0.00419 µM), respectively. In addition, in test [2], the pest or weed control at 50 ppm is 80 to 100%. For the same compound, the half-maximal inhibitory concentration (IC50) was 12 µM against CYP2C9, 8.4 µM against CYP3A4 and 11 µM at CYP2C19.
